# Experimental data: paper PMC9389804 (Journal of Hematology & Oncology, 2022)
# Assay: phase 1 dose escalation (DLT, MTD, RP2D)
# Assay type: in vivo
# Description: This was a phase 1/2, open-label, two-part study. […] Each cohort was assessed for safety over a treatment cycle of 28 days before enrolling the next cohort, in order to identify the maximum tolerated dose (MTD), or the dose at which the dose-limiting toxicity (DLT) occurred in no more than 33.0% of patients during the first cycle. […] In the event of a lack of efficacy, the study permitted intrapatient dose escalation unless the olverembatinib regimen exceeded MTD. After that, dose expansion cohorts at targeted doses were initiated. The primary endpoint within the phase 1 study was the recommended phase 2 dose (RP2D), and the Chinese Clinical Trial Registry (www.chictr.org.cn) identifier was ChiCTR1900027568.
structure (smiles),measurement,setting,value
Cc1ccc(C(=O)Nc2ccc(CN3CCN(C)CC3)c(C(F)(F)F)c2)cc1C#Cc1cnc2[nH]ncc2c1 [olverembatinib],maximum tolerated dose (MTD),"QOD, 33 patients in dose escalation",50 mg
same,dose-limiting toxicity (DLT),in vivo,no DLT was observed
